One data set concerns K12 E. coli. The data set is classed as cell-based. The procedure:
The antimicrobial activities of the peptides and their acetylated derivatives may be assessed using K-12 E. coli and assays based on an existing protocol used to study derivatives of hBD-3. The bacteria may be grown to mid-log phase in Luria Bertani (LB) broth. Aliquots of the culture may then be diluted (to a cell density of about 10^6 CFU/ml) into 10 mM sodium phosphate at a pH of about 7.5. Each of the aliquots may contain varied concentrations of peptide or acetylated peptide. The diluted bacterial cultures may then be incubated for about 2 hours at a temperature of about 37° C. After the proscribed time, serial dilutions of the assay cultures may be plated onto LB agar plates, and then allowed to incubate overnight at a temperature of about 37° C. After incubating, colonies may be counted. Dose-response curves may be prepared to calculate EC50's.
The antibacterial activities of the free and acetylated peptides may be determined using K12 E. coli and a known assay protocol. Bacteria may be incubated in Luria Bertani broth at 37° C. until reaching an OD600 of ˜0.8-˜1.1. Cell density may be monitored using optical density at 600 nm. Cells were then diluted to a concentration of 10^6 CFU/ml in ˜10 mM sodium phosphate (pH ˜7.5), containing varied concentrations of peptide or acetylated peptide. Peptide concentration used in the assays may range from 0 μg/ml to ˜100 μg/ml with intermediate concentrations varied for each peptide in order to maximize the number of data points in or near the transition region.
Assay cultures may be incubated at 37° C. for about two hours. Afterwards, serial dilutions of each assay culture may be prepared and then plated in triplicate onto Luria Bertani broth plates. The plates may be incubated at 37° C. overnight (˜16 h). Colonies may be counted the following morning.
Bacterial survival at each peptide concentration may be calculated according to the ratio of the number of colonies on the plates corresponding to the peptide concentration and the average number of colonies observed for assay cultures lacking peptide. The peptide concentration required to kill ˜50% of tile viable E. coli in the assay cultures (EC50) may be determined by plotting percent survival as a function of the log of peptide concentration (log μg/ml) and fitting the data, using GraphPad Prism (GraphPad Software, Inc., San Diego, Calif.), to Equation (1), which describes a sigmoidal dose-response.
In Equation (1), S is percent survival, ST and SB represent the upper and lower survival boundaries, X is the log of the peptide concentration, and H is the Hill slope of the transition region.
In fitting the data for all peptides and acetylated peptides (except acetylated Pep-1 and acetylated Pep-3), ST and SB may be restricted to values≦100% and ≧0% respectively. For acetylated Pep-1 and acetylated Pep-3, the absence of data points defining the lower boundary necessitated that SB be set to 0% in order to fit the data to Equation (1) and provide an estimated EC50 for these peptides.

The subject of another data set is horse erythrocytes. The data set is classed as cell-based. On the procedure: Hemolytic activity may be assayed by, for example, incubating horse erythrocytes (e.g., Hemasource Inc. of Eugene, Oreg.). Varied peptide concentrations in phosphate buffered saline (e.g., Cellgro, produced by Mediatech, Inc. of Manassas, Va.) may be used for the incubation process. Hemolysis may be quantified by pelleting cells after incubation using centrifugation, and then measuring the absorbance of the supernatant at about 540 nm.
Hemolytic activities of the free and acetylated peptides may be determined using horse erythrocytes, in an assay adapted to a microtitre plate format. Cells may be prepared by centrifuging ˜1 ml of horse erythrocytes at 1620×g, and then resuspending the pelleted cells in ˜1 ml of 1× Dulbecco's phosphate-buffered saline (Dulbecco's PBS, Mediatech, Manassas, Va.). The cells may then be pelleted again. The process may be repeated (e.g., three more times). Following the final wash, the cells may be resuspended in ˜0.750 ml of PBS. Approximately two hundred microliters of washed erythrocyte suspension may then be diluted into ˜9800 μl of PBS to afford about 2% suspension. Aliquots of sterile water, peptide, and Dulbecco's PBS may then be combined in the wells of a 96 well microtitre plate so as to provide a gradient of peptide concentrations (0, ˜0.1, ˜1, ˜10, ˜100, and ˜1,000 μg/ml), to which the ˜2% erythrocyte may be added. […] An aliquot of supernatant (˜150 μl) from each well may then be transferred to a fresh microtitre plate, and the absorbance at ˜540 nm (heme) may be obtained for each solution. The percent hemolysis may be calculated based on the ratio of the absorption of supernatants from wells containing peptide and the absorption of supernatants from wells containing no peptide. In both cases, the recorded absorption may be adjusted for the background absorption of the plates.
Results of these assays appear in FIG. 21. […] Absorbance at 540 nm was used to monitor the release of hemoglobin by horse erythrocytes that have been incubated with varied concentrations of free peptide or acetylated peptide.

[1] abbreviates: acetylated peptide, K12 E. coli, 10 mM sodium phosphate pH ~7.5, 2 h 37° C., 90% confidence range in parentheses, ‡ estimated values.

Read-outs that look alike come from different tables or passages of the source. No end group written: not given here.

As to “Ac-RGRRSSRRK(Ac)K(Ac)-NH2 [acetylated Pep-4]”, the “LC90, Acetylated Peptide” value in the data set on E. coli BL21(DE3) was 1.49 µg/mL. In addition, in the data set on K12 E. coli (K12, 2 h), the “Antimicrobial Activity (EC50), Acetylated” value was 4.9 (4.2-5.8) μg/ml. In the data set with K12 E. coli (K12 E. coli, from EC50 values), the “antimicrobial potency as percent of free Pep-1” value is reported as roughly 50%.

With “RGRKSSRRKK [Pep-1, RGRKSSRRKK (SEQ ID NO:2)]”, the “LC90, Free Peptide” value with E. coli BL21(DE3) was 2.23 µg/mL. In addition, the “Antimicrobial Activity (EC50), Free” value in the data set with K12 E. coli (K12, 2 h) is given as 2.4 (2.2-2.7) μg/ml. For the same substance, the “hemolytic activity (in words)” value with horse erythrocytes is on record as “some low-level hemolytic activity”.

Regarding “RGRKSSRRKK-NH2 [Pep-3, RGRKSSRRKK-NH2 (SEQ ID NO:5)]”, in the data set on K12 E. coli (K12, 2 h), the “Antimicrobial Activity (EC50), Free” value was 1.2 (1.1-1.2) μg/ml.

In the case of “Ac-RGRRSSRRK(Ac)K(Ac)-OH [acetylated Pep-2]”, the “Antimicrobial Activity (EC50), Acetylated” value in the data set with K12 E. coli (K12, 2 h) was roughly 8.1 µg/mL; in the data set with K12 E. coli (setting [1]), 8.1 (6.5-9.9) μg/ml. Also, in the data set on K12 E. coli (K12 E. coli, from EC50 values), the “antimicrobial potency as percent of free Pep-1” value is roughly 25%.

Consider “RGRRSSRRKK [Pep-2, RGRRSSRRKK (SEQ ID NO:3)]”, for which the “Antimicrobial Activity (EC50), Free” value in the data set with K12 E. coli (K12, 2 h) is 1.2 (1.1-1.3) μg/ml. For the same substance, the “hemolytic activity (in words)” value in the data set with horse erythrocytes is on record as “some low-level hemolytic activity”.

As for “RGRRSSRRKK-NH2 [Pep-4, RGRRSSRRKK-NH2 (SEQ ID NO:6)]”, the “LC90, Free Peptide” value in the data set on E. coli BL21(DE3) was 0.15 µg/mL. In addition, the “hemolytic activity (in words)” value with horse erythrocytes is “some low-level hemolytic activity”.

“Ac-RGRK(Ac)SSRRK(Ac)K(Ac)-OH [acetylated Pep-1]”: the “LC90, Acetylated Peptide” value in the data set with E. coli BL21(DE3) was determined as 94.40 µg/mL. Also, in the data set with K12 E. coli (K12 E. coli, from EC50 values), the “antimicrobial potency as percent of free Pep-1” value is roughly 5% and the “decrease in potency relative to free Pep-1” value was “sixteen”.

Regarding “Ac-RGRK(Ac)SSRRK(Ac)K(Ac)-NH2 [acetylated Pep-3]”, the “Antimicrobial Activity (EC50), Acetylated” value in the data set with K12 E. coli (setting [1]) was roughly 70 µg/mL.

These data come from patent US9849189B2, “Targeted delivery of antimicrobial agents” (George Mason Research Foundation, Inc., priority 2008, dated 2017).
